Test results as given in paper PMC8238916 (Nature chemical biology, 2021).

Assays:
TEX cells [1] = assay: Western blot in TEX cells; type: cell-based, human; conditions: 4 days
TEX cells [2] = assay: Cell viability assay; type: cell-based, human
TEX cells [3] = assay: Gene expression; type: cell-based, human; conditions: 96 hours
[4] = biological target: T1, RING1B RING domain (residues 10-116) as it stands in RING1B-BMI1f (UniProt Q99496 10-116); assay: crystal structure
T1 sequence: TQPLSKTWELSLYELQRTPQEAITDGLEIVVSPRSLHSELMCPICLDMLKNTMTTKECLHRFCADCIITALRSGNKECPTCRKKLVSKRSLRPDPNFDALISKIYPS

binding result [4] | Molecule | H2Aub, BMI1 and H2A levels (TEX cells [1]) | cytotoxicity compared with RB-3 (TEX cells [2]) | C/EBPα and CD34 expression (TEX cells [3])
 | COc1cc(Br)c(Nc2nc(-c3c(C)nc4ncccn34)cs2)c(Br)c1 [PTC209] | decreased H2Aub, reduced BMI1 level and, unexpectedly, reduced H2A levels | more cytotoxic to TEX cells than RB-3 | had no effect on C/EBPα and CD34 expression
binds | BMI1 RING domain (residues 1-104) as it stands in RING1B-BMI1f (domain or fragment) MHRTTRIKITELNPHLMCVLCGGYFIDATTIIECLHSFCKTCIVRYLETSKYCPICDVQVHKTRPLLNIRSDKTLQDIVYKLVPGLFKNEMKRRRDFYAAHPSA |  |  | 
